Data: ChEMBL document CHEMBL2429832, “N-substituted 8-aminopentacyclo[5.4.0.0(2,6).0(3,10).0(5,9)]undecanes as σ receptor ligands with potential neuroprotective effects” (Bioorg Med Chem, 2013)
Values belong to the molecule of their own block, whether it stands above or below them. Active and inactive are the calls of the source. The rule behind the calls is not given here.

Tests used:
D(2) dopamine receptor = D(2) dopamine receptor (Homo sapiens, UniProt P14416); assay: Inhibition of dopamine D2 receptor (unknown origin) by PDSP assay
Chain of D(2) dopamine receptor (P14416 whole entry): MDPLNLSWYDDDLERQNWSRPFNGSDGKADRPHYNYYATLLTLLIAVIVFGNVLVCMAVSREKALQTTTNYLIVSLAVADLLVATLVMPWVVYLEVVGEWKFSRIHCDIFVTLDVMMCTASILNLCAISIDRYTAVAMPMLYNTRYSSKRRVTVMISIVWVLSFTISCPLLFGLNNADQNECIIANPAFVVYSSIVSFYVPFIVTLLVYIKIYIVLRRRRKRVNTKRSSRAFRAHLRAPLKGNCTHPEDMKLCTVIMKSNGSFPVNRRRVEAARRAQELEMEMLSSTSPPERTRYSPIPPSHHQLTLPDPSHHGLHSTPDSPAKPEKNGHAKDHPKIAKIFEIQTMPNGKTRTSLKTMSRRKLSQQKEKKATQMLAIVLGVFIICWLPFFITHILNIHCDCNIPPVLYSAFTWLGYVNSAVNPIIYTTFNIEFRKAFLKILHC

[1] = biological target: 5-hydroxytryptamine receptor 2B (Homo sapiens, UniProt P41595); assay: Inhibition of 5-HT2B receptor (unknown origin) by PDSP assay
Chain of 5-hydroxytryptamine receptor 2B (P41595 whole entry): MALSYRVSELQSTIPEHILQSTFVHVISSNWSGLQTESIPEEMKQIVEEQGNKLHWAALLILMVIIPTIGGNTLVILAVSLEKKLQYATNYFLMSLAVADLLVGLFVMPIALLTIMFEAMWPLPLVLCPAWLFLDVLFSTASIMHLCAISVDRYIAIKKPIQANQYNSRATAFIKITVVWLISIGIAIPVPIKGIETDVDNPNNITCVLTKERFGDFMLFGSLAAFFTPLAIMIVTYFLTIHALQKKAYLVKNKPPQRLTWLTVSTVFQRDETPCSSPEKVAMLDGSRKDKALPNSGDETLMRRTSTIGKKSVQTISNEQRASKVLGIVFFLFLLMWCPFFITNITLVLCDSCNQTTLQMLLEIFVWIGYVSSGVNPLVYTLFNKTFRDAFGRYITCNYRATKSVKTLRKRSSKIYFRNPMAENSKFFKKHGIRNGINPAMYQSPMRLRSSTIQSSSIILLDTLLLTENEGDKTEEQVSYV

[2] = biological target: 5-hydroxytryptamine receptor 7 (Homo sapiens, UniProt P34969); assay: Inhibition of 5-HT7 receptor (unknown origin) by PDSP assay
Chain of 5-hydroxytryptamine receptor 7 (P34969 whole entry): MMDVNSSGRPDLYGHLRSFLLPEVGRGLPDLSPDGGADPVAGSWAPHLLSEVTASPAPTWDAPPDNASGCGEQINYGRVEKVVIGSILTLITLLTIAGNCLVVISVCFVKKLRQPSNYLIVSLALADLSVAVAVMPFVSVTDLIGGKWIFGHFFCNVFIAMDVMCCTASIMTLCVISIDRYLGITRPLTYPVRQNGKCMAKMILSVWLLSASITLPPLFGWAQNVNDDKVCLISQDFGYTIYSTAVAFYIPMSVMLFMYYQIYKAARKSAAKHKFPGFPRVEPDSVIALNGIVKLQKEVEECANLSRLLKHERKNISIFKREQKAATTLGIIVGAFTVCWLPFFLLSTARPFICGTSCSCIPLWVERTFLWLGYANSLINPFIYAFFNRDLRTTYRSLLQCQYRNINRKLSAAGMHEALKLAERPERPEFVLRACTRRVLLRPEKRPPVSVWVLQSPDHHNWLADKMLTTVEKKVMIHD

[3] = biological target: T1, Alpha-2A adrenergic receptor (Homo sapiens, UniProt P08913); assay: Inhibition of adrenergic alpha2A receptor (unknown origin) by PDSP assay
T1 sequence (P08913 whole entry): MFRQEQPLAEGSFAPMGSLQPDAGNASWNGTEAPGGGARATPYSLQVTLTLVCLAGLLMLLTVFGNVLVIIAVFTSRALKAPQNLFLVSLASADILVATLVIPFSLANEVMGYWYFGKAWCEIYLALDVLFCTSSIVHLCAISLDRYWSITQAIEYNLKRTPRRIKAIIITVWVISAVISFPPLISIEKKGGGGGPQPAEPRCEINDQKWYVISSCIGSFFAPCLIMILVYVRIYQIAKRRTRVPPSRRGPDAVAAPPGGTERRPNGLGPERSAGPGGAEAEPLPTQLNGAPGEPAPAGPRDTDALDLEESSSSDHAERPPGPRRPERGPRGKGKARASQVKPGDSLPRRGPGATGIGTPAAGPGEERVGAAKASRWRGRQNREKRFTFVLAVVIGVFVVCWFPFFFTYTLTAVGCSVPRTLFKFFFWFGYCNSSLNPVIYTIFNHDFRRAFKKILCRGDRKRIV

[4] = biological target: T2, Muscarinic acetylcholine receptor M1 (Homo sapiens, UniProt P11229); assay: Inhibition of muscarinic M1 receptor (unknown origin) by PDSP assay
T2 sequence (P11229 whole entry): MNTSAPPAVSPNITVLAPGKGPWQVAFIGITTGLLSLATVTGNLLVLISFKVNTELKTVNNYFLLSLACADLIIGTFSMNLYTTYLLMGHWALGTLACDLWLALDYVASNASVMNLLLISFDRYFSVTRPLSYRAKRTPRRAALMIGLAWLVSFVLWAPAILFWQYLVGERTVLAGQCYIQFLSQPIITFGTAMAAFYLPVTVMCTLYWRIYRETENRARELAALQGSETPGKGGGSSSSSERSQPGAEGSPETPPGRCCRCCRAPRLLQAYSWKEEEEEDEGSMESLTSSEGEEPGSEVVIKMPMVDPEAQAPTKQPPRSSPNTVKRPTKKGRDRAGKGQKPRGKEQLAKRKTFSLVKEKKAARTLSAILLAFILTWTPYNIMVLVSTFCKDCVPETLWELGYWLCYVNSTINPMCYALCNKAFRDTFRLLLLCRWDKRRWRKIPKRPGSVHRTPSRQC

RAW264.7 [5] = assay: Neuroprotective activity in mouse RAW264.7 cells assessed as inhibition of LPS-stimulated nitric oxide release after 20 to 24 hrs by Griess assay; type: functional, cell-based
[6] = biological target: 5-hydroxytryptamine receptor 5A (Homo sapiens, UniProt P47898); assay: Inhibition of 5-HT5A receptor (unknown origin) by PDSP assay
Chain of 5-hydroxytryptamine receptor 5A (P47898 whole entry): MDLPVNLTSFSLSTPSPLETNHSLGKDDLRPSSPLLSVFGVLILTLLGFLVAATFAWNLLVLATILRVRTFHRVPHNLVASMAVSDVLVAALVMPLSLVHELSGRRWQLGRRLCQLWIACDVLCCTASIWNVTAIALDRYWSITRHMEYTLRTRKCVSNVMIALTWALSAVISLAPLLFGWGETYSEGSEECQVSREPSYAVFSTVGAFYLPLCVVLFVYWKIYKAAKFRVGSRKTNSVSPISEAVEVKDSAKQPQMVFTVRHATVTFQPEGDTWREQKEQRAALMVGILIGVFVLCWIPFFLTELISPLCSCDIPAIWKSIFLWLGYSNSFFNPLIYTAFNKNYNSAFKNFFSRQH

D(4) dopamine receptor = D(4) dopamine receptor (Homo sapiens, UniProt P21917); assay: Inhibition of dopamine D4 receptor (unknown origin) by PDSP assay
Chain of D(4) dopamine receptor (P21917 whole entry): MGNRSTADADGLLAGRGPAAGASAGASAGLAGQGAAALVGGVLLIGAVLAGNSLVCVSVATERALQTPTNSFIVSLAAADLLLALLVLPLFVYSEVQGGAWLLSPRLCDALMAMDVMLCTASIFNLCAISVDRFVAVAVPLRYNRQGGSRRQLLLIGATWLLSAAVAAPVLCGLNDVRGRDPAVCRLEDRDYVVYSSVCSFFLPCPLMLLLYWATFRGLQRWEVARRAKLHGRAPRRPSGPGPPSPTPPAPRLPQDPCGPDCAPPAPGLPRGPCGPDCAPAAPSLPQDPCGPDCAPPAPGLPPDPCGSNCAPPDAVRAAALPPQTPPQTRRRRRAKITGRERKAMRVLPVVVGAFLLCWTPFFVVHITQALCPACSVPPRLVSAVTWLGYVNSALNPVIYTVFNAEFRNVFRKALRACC

[7] = biological target: 5-hydroxytryptamine receptor 6 (Homo sapiens, UniProt P50406); assay: Inhibition of 5-HT6 receptor (unknown origin) by PDSP assay
Chain of 5-hydroxytryptamine receptor 6 (P50406 whole entry): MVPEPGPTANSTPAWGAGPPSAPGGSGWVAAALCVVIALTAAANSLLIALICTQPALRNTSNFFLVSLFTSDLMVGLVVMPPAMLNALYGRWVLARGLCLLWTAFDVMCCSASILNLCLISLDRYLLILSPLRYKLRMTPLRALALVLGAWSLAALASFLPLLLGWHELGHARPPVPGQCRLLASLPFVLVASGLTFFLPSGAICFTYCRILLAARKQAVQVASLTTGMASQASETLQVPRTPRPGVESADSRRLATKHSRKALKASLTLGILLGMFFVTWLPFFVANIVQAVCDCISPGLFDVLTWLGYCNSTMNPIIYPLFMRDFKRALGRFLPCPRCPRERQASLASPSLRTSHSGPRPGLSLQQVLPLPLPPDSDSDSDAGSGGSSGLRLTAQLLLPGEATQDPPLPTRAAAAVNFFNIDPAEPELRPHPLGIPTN

Histamine H4 receptor = Histamine H4 receptor (Homo sapiens, UniProt Q9H3N8); assay: Inhibition of histamine H4 receptor (unknown origin) by PDSP assay
[8] = Inhibition of rat brain BZP receptor by PDSP assay
RAW264.7 [9] = assay: Neuroprotective activity in mouse RAW264.7 cells assessed as inhibition of LPS-stimulated nitric oxide release up to 100 uM after 20 to 24 hrs by Griess assay; type: functional, cell-based
[10] = Inhibition of Ca2+ channel (unknown origin) by PDSP assay; set-up: species or system Homo sapiens
RAW264.7 [11] = assay: Neuroprotective activity in mouse RAW264.7 cells assessed as inhibition of LPS-stimulated nitric oxide release at 50 uM after 20 to 24 hrs by Griess assay relative to control; type: functional
Histamine H3 receptor = Histamine H3 receptor (Homo sapiens, UniProt Q9Y5N1); assay: Inhibition of histamine H3 receptor (unknown origin) by PDSP assay
Chain of Histamine H3 receptor (Q9Y5N1 whole entry): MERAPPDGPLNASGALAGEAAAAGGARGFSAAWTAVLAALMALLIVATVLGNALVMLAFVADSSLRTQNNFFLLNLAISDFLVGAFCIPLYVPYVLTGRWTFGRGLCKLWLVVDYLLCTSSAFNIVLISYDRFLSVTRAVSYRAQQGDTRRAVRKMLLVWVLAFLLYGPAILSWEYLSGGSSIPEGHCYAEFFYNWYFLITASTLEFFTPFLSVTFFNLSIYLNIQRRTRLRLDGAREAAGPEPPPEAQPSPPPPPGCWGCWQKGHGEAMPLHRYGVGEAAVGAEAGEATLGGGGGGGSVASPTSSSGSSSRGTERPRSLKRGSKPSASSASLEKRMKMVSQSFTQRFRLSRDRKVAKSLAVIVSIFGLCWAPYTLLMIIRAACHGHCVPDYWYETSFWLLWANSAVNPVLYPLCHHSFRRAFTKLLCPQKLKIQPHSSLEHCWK

[12] = biological target: Sodium-dependent noradrenaline transporter (Homo sapiens, UniProt P23975); assay: Displacement of [3H]-nisoxetine from human NET expressed in HEK cell membranes; set-up: species or system HEK293
Chain of Sodium-dependent noradrenaline transporter (P23975 whole entry): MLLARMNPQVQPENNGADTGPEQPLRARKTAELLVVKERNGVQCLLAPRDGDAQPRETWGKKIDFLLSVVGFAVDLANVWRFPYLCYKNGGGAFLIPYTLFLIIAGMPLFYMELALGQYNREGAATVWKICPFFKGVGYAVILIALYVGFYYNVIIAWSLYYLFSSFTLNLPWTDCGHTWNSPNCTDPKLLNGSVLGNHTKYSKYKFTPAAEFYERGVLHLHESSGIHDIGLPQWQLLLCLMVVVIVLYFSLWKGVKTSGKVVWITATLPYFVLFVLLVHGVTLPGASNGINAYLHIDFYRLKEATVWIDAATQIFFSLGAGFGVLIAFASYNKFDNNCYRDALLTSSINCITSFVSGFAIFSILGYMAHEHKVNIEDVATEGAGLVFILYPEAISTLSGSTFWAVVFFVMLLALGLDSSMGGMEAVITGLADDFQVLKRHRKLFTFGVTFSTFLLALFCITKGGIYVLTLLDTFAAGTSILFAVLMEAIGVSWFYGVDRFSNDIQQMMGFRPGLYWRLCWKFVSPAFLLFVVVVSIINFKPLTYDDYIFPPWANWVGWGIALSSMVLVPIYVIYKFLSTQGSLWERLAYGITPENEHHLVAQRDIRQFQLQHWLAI

RAW264.7 [13] = assay: Neuroprotective activity in mouse RAW264.7 cells assessed as inhibition of LPS-stimulated nitric oxide release at 75 uM after 20 to 24 hrs by Griess assay relative to control; type: functional
[14] = biological target: 5-hydroxytryptamine receptor 1A (Homo sapiens, UniProt P08908); assay: Inhibition of 5-HT1A receptor (unknown origin) by PDSP assay
Chain of 5-hydroxytryptamine receptor 1A (P08908 whole entry): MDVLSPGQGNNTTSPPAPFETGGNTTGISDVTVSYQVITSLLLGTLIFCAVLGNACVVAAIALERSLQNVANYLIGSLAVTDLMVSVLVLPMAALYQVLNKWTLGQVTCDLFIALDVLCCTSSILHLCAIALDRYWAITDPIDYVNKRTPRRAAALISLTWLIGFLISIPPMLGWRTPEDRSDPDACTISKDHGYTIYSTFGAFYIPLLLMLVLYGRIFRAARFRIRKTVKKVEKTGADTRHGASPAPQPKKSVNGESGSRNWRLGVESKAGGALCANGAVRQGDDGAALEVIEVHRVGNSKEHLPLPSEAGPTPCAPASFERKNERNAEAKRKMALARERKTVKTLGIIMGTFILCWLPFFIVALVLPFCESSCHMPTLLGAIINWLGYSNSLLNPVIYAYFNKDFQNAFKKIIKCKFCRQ

[15] = biological target: 5-hydroxytryptamine receptor 1B (Homo sapiens, UniProt P28222); assay: Inhibition of 5-HT1B receptor (unknown origin) by PDSP assay
Chain of 5-hydroxytryptamine receptor 1B (P28222 whole entry): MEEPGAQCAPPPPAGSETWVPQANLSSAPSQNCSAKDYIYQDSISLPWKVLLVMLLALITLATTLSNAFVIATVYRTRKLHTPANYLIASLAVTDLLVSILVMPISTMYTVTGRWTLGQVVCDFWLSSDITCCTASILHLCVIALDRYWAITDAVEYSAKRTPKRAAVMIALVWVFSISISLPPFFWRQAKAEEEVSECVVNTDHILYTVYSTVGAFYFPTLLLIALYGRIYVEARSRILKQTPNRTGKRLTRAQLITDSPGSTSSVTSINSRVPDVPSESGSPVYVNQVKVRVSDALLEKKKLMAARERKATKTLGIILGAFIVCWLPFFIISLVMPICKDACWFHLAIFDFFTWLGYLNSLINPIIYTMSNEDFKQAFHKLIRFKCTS

RAW264.7 [16] = assay: Neuroprotective activity in mouse RAW264.7 cells assessed as inhibition of LPS-stimulated nitric oxide release at 100 uM after 20 to 24 hrs by Griess assay relative to control; type: functional
Homo sapiens = organism: Homo sapiens; assay: Inhibition of NMDA receptor PCP binding site (unknown origin) at 10 uM by PDSP assay relative to control
Mu-type opioid receptor = Mu-type opioid receptor (Homo sapiens, UniProt P35372); assay: Inhibition of mu opioid receptor (unknown origin) by PDSP assay
Chain of Mu-type opioid receptor (P35372 whole entry): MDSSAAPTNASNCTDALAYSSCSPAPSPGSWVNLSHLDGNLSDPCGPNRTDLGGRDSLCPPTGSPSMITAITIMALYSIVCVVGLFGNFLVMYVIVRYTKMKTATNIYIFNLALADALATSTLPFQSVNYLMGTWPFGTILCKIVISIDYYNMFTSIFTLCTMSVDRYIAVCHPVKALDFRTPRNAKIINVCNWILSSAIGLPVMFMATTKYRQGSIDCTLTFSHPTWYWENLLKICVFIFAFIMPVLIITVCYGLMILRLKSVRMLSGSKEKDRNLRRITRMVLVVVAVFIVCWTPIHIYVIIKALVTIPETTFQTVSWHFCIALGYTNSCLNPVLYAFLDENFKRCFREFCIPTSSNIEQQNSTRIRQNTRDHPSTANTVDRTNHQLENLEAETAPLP

[17] = biological target: Delta-type opioid receptor (Homo sapiens, UniProt P41143); assay: Inhibition of delta opioid receptor (unknown origin) by PDSP assay

SMILES: CN(CCc1ccccc1)[C@H]1C2C3CC4C5C3CC2C5C41 (some centres not stated)
- Ki (D(2) dopamine receptor): 5.1 µM
- Ki [1]: 2.71 µM
- Ki [2]: 4.42 µM

SMILES: CN(Cc1ccc2c(c1)OCO2)[C@H]1C2C3CC4C5C3CC2C5C41 (some centres not stated)
- Ki [8]: 4.88 µM

SMILES: COc1ccc(CN[C@H]2C3C4CC5C6C4CC3C6C52)cc1OC (some centres not stated)
- Ki [7]: > 10 µM
- Ki [3]: 5.21 µM

SMILES: c1ccc(CN[C@H]2C3C4CC5C6C4CC3C6C52)cc1 (some centres not stated)
- inhibition (RAW264.7 [9]): inactive
- Ki [10]: 3.62 µM

SMILES: COc1cc(CN[C@H]2C3C4CC5C6C4CC3C6C52)cc(OC)c1OC (some centres not stated)
- inhibition (RAW264.7 [9]): inactive
- Ki [1]: 1.96 µM

SMILES: C1CCC(CN[C@H]2C3C4CC5C6C4CC3C6C52)CC1 (some centres not stated)
- inhibition (RAW264.7 [5]): Dose-dependent effect
- inhibition at 50 µM (RAW264.7 [11]): 7.7%

SMILES: CN(CC1CCCCC1)[C@H]1C2C3CC4C5C3CC2C5C41 (some centres not stated)
- inhibition (RAW264.7 [5]): Dose-dependent effect
- inhibition at 50 µM (RAW264.7 [11]): 30%
- inhibition at 75 µM (RAW264.7 [13]): 88.3%

SMILES: c1ccc(CCN[C@H]2C3C4CC5C6C4CC3C6C52)cc1 (some centres not stated)
- Ki (D(4) dopamine receptor): > 10 µM
- Ki (D(2) dopamine receptor): > 10 µM
- inhibition (RAW264.7 [5]): Dose-dependent effect
- inhibition at 50 µM (RAW264.7 [11]): 9.5%
- Ki [3]: > 10 µM
- Ki [15]: > 10 µM
- inhibition at 100 µM (RAW264.7 [16]): 17.5%

SMILES: CN(CCc1ccccn1)[C@H]1C2C3CC4C5C3CC2C5C41 (some centres not stated)
- Ki (Mu-type opioid receptor): 2.12 µM
- Ki [17]: 2.79 µM

Continued, in another order:

- Ki [3]: > 10 µM
SMILES: COc1ccc(CN(C)[C@H]2C3C4CC5C3C(=O)C3C5C4C32)cc1OC (some centres not stated)

- Ki [4]: 7.47 µM
- Ki (D(2) dopamine receptor): 5.68 µM
- Ki [6]: 7.5 µM
SMILES: C1C2C3CC4C2C2C1C3[C@H](NCC13C5C6C7C5C1C7C63)C42 (some centres not stated)
- inhibition (RAW264.7 [5]): Dose-dependent effect

- Ki (D(4) dopamine receptor): > 10 µM
- Ki (D(2) dopamine receptor): 9.91 µM
- Ki [7]: > 10 µM
- Ki (Histamine H4 receptor): > 10 µM
SMILES: c1ccc(CCN[C@H]2C3C4CC5C6C4CC3C6C52)nc1 (some centres not stated)

- Ki (Histamine H3 receptor): 2.05 µM
- Ki [4]: > 10 µM
- Ki [12]: 8.53 µM
- Ki [3]: > 10 µM
SMILES: CN(CCCc1cccc(F)c1)[C@H]1C2C3CC4C2C(=O)C2C4C3C21 (some centres not stated)

- Ki [14]: > 10 µM
SMILES: CN(Cc1cccc(F)c1)[C@H]1C2C3CC4C2C(=O)C2C4C3C21 (some centres not stated)

- Ki [4]: 5.86 µM
- inhibition (Homo sapiens): < 50%
SMILES: CN(Cc1ccccc1)[C@H]1C2C3CC4C2C(=O)C2C4C3C21 (some centres not stated)

- Ki [12]: 7.35 µM
- Ki [6]: 6.06 µM
SMILES: c1cc2c(cc1CN[C@H]1C3C4CC5C6C4CC3C6C51)OCO2 (some centres not stated)
